Key:
[1] = test system: Leptosphaeria nodorum; test: Activity against wheat leafspot (LN); assay type: in vivo; details: direct therapeutic foliar spray, 600 ppm, 6-8 days
In short: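 Therapeutic foliar spray: compound at 600 ppm applied to single-leaf wheat (cv Norman) 24 h after inoculation with 1.5×10^6 conidia/ml. Disease control scored after 6-8 days at 22° C and 70% humidity as lesions per leaf versus untreated or diluent-sprayed controls.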

[2] = test system: Botrytis cinerea; test: Direct protectant activity against broad bean grey mould (BCB); assay type: in vivo; details: direct protectant foliar spray, 600 ppm, 4 days
In short: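 Protectant foliar test: lesion coverage assessed 4 days after inoculation and rated relative to untreated or diluent-sprayed plants. Compound applied at 600 ppm to cv The Sutton leaves 24 h before 10^6 conidia/ml suspension; incubation at 22 °C in high humidity.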

[3] = test system: Alternaria solani; test: Activity against tomato early blight (AS); assay type: in vivo; details: Table VI; tomato seedlings, contact prophylactic foliar spray, 4 days
In short: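 Plants were challenged with A. solani conidia (10^4 spores/ml) 24 h after a protective foliar spray of compound in 50:50 acetone/water plus 0.04% Tween 20. Held humid at 21° C for 4 days, then percent leaf area with lesions was scored as a rating relative to controls.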

[4] = test system: Venturia inaequalis; test: Activity against apple scab in-vitro (VII); assay type: cell-based; details: 10 ppm, 10 days, 20° C., mycelial growth
In short: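 V. inaequalis propagules (5×10^4/ml, malt agar-grown) were exposed in half-strength PDB to 10 ppm final test compound delivered in acetone. Growth was scored after incubation for 10 days at 20° C, as a rating relative to untreated or diluent-sprayed controls.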

[5] = test system: Pyricularia oryzae; assay type: in vivo; details: rice seedlings, direct therapeutic foliar spray, 600 ppm, 4-5 days
[6] = test system: Plasmopara viticola; test: Antisporulant activity against vine downy mildew (PVA); assay type: in vivo; details: vine leaves, antisporulant foliar spray, 600 ppm, 750 l/ha
In short: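 Cabernet Sauvignon vines (~8 cm) inoculated on lower leaf surfaces with 5×10^4 zoosporangia/ml, held 24 h at 21° C high humidity then 24 h glasshouse. Infected leaves sprayed underside with 600 ppm compound in 1:1 water/acetone, 0.04% Tween 20, 750 l/ha; 96 h glasshouse, 24 h humidity. Sporulating leaf area rated versus control.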

[7] = test system: Erysiphe graminis f.sp. hordei; test: Direct protectant activity against barley powdery mildew (EGP); assay type: in vivo; details: direct protectant foliar spray, 8 days
In short: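 Rating reflects percentage of leaf area with sporulation compared with untreated or diluent-sprayed controls. Protectant spray was applied to single-leaf barley (cv Golden Promise) 24 h before conidia inoculation. Plants were kept at 18 °C and 40% RH throughout, with 8 days of disease development.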

[8] = test system: Erysiphe graminis f.sp. hordei; test: Activity against barley powdery mildew, direct therapeutic (EGT); assay type: in vivo; details: direct therapeutic foliar spray, 600 ppm, up to 7 days
In short: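 A curative spray at 600 ppm was applied to single-leaf Golden Promise barley inoculated with powdery mildew conidia the previous day. After up to 7 days at 18 °C and 40% humidity, disease control was rated from percent leaf area sporulating relative to untreated or diluent-sprayed controls.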

[9] = test system: Phytophthora infestans; assay type: in vivo; details: tomato, direct protectant foliar spray
[10] = test system: Rhizoctonia solani; test: Activity against Rhizoctonia in-vitro (RSI); assay type: cell-based; details: 10 ppm, 10 days, 20° C., mycelial growth
In short: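 Compound at a final 10 ppm (acetone vehicle) in half-strength PDB, inoculated with 5×10^4 fragments/ml of shaken-culture R. solani mycelium. After incubation at 20° C for 10 days, growth scored as a rating versus untreated or diluent-treated controls.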

[11] = test system: Pseudocercosporella herpotrichoides; test: Activity against wheat eyespot in-vitro (PHI); assay type: cell-based; details: 10 ppm, 10 days, 20° C., mycelial growth
In short: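 Mycelial growth was scored after 10 days at 20 °C against untreated or diluent controls. The broth was half-strength potato dextrose, holding 10 ppm test compound (from acetone) and 5×10^4 fragments/ml of the eyespot fungus.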

SMILES | disease control rating LN [1] | disease control rating BCB [2] | disease control rating AS [3] | disease control rating VII [4] | disease control rating PO [5] | disease control rating PVA [6] | disease control rating EGP [7] | disease control rating EGT [8] | disease control rating PIP [9] | disease control rating RSI [10] | disease control rating PHI [11]
CN(C)C1COC2(CCC(C(C)(C)C)CC2)C1 (stereo not shown) [Compound 67] | 1 (about 50-80% disease control) | 0 (less than 50% disease control) | 0 (less than 50% disease control) | 0 (less than 50% disease control) | 1 (about 50-80% disease control) | 0 (less than 50% disease control) | 2 (greater than 80% disease control) | 2 (greater than 80% disease control) | 2 (greater than 80% disease control) | 0 (less than 50% disease control) | 0 (less than 50% disease control)
CCN(CC)C1COC2(CCC(C(C)(C)C)CC2)C1 (stereo not shown) [Compound 68] | 0 (less than 50% disease control) | 0 (less than 50% disease control) | 0 (less than 50% disease control) | 1 (about 50-80% disease control) | 1 (about 50-80% disease control) | 0 (less than 50% disease control) | 2 (greater than 80% disease control) | 2 (greater than 80% disease control) | 0 (less than 50% disease control) | 0 (less than 50% disease control) | 0 (less than 50% disease control)
CCCCCCN(CCCCCC)C1COC2(CCC(C(C)(C)C)CC2)C1 (stereo not shown) [Compound 69] | 0 (less than 50% disease control) | 0 (less than 50% disease control) | 0 (less than 50% disease control) | 2 (greater than 80% disease control) | 1 (about 50-80% disease control) | 0 (less than 50% disease control) | 2 (greater than 80% disease control) | 2 (greater than 80% disease control) | 0 (less than 50% disease control) | 0 (less than 50% disease control) | 0 (less than 50% disease control)
CC(C)(C)C1CCC2(CC1)CC(NC1CCCC1)CO2 (stereo not shown) [Compound 70] | 0 (less than 50% disease control) | 0 (less than 50% disease control) | 1 (about 50-80% disease control) | 1 (about 50-80% disease control) | 0 (less than 50% disease control) | 0 (less than 50% disease control) | 2 (greater than 80% disease control) | 2 (greater than 80% disease control) | 2 (greater than 80% disease control) | 0 (less than 50% disease control) | 0 (less than 50% disease control)
CC(C)(C)C1CCC2(CC1)CC(NC1CC1)CO2 (stereo not shown) [Compound 71] | 1 (about 50-80% disease control) | 0 (less than 50% disease control) | 0 (less than 50% disease control) | 1 (about 50-80% disease control) | 0 (less than 50% disease control) | 0 (less than 50% disease control) | 2 (greater than 80% disease control) | 2 (greater than 80% disease control) | 2 (greater than 80% disease control) | 0 (less than 50% disease control) | 0 (less than 50% disease control)
CCCCCN(CC)C1COC2(CCC(C(C)(C)C)CC2)C1 (stereo not shown) [Compound 72] | 0 (less than 50% disease control) | 0 (less than 50% disease control) | 0 (less than 50% disease control) | 1 (about 50-80% disease control) | 0 (less than 50% disease control) | 0 (less than 50% disease control) | 2 (greater than 80% disease control) | 2 (greater than 80% disease control) | 0 (less than 50% disease control) | 0 (less than 50% disease control) | 0 (less than 50% disease control)
CCCCCN(CCC)C1COC2(CCC(C(C)(C)C)CC2)C1 (stereo not shown) [Compound 73] | 0 (less than 50% disease control) | 1 (about 50-80% disease control) | 0 (less than 50% disease control) | 0 (less than 50% disease control) | 0 (less than 50% disease control) | 0 (less than 50% disease control) | 2 (greater than 80% disease control) | 2 (greater than 80% disease control) | 0 (less than 50% disease control) | 0 (less than 50% disease control) | 0 (less than 50% disease control)
CCCCCN(CCCC)C1COC2(CCC(C(C)(C)C)CC2)C1 (stereo not shown) [Compound 74] | 0 (less than 50% disease control) | 0 (less than 50% disease control) | 0 (less than 50% disease control) | 0 (less than 50% disease control) | 0 (less than 50% disease control) | 0 (less than 50% disease control) | 2 (greater than 80% disease control) | 2 (greater than 80% disease control) | 0 (less than 50% disease control) | 0 (less than 50% disease control) | 0 (less than 50% disease control)

— US5591741A, “Fungicidal spiroheterocyclic derivatives” (American Cyanamid Company, priority 1993, dated 1997)
